# From patent publication EP0417803A1, “[N-(gamma-glutamyl)glycyl] alanine derivatives” (SANDOZ LTD., priority 1989, dated 1991)
# Test: Induction of endotoxin shock in the mouse
# Conditions: in vivo, read-out: LD₅₀
# Excerpt: The test method is essentially as described in GB 2'179'945 A and DE 37'30'905.
smiles,measurement,value
"CCCCCCC(=O)N[C@H](CCC(=O)N[C@H](/C=C/CC(O)C(=O)OCCCC)C(=O)N[C@@H](C)C(=O)OCC)C(=O)OCc1ccccc1 (stereo partly drawn) [Example 1, {N-[N′-Heptanoyl-(R)-γ-glutamyl-(α-benzylester)]-(R)-α-[2-(RS)-hydroxypent-4-enoic acid butyl ester-5-yl]glycyl]-(S)-alanine ethyl ester]",LD50,12 mg/kg
